Key:
MAGL = MAGL (Mus musculus (Mouse), UniProt O35678); test: In vitro competitive activity-based protein profiling, MAGL (mouse); type: biochemical; conditions: for inhibition at 1 µM: read-out: MAGL % inh. 1 μM (mouse)
Method in brief: (§1)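 Proteomes at 1.0 mg/mL protein (mouse brain membranes or cell lysates; human prefrontal cortex or cell membranes) preincubated with inhibitor 30 min at 37 °C. Then FP-Rh or HT-01 probe (50 μM stock) added for 30 min at 37 °C. MAGL and FAAH activity measured by SDS-PAGE band fluorescence.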

FAAH = FAAH (Mus musculus (Mouse), UniProt O08914); test: In vitro competitive activity-based protein profiling, FAAH (mouse); type: biochemical; conditions: for inhibition at 1 µM: read-out: FAAH % inh. 1 μM (mouse)
Method in brief: as §1

Chain of MAGL (O35678 whole entry): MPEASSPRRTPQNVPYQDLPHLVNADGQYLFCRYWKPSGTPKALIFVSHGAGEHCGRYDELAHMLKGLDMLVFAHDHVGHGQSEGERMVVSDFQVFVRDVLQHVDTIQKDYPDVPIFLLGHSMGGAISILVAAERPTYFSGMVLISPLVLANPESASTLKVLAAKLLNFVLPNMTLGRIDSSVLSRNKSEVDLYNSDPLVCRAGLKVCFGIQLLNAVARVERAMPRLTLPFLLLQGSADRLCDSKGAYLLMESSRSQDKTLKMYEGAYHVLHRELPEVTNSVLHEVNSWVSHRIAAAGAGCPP
Chain of FAAH (O08914 whole entry): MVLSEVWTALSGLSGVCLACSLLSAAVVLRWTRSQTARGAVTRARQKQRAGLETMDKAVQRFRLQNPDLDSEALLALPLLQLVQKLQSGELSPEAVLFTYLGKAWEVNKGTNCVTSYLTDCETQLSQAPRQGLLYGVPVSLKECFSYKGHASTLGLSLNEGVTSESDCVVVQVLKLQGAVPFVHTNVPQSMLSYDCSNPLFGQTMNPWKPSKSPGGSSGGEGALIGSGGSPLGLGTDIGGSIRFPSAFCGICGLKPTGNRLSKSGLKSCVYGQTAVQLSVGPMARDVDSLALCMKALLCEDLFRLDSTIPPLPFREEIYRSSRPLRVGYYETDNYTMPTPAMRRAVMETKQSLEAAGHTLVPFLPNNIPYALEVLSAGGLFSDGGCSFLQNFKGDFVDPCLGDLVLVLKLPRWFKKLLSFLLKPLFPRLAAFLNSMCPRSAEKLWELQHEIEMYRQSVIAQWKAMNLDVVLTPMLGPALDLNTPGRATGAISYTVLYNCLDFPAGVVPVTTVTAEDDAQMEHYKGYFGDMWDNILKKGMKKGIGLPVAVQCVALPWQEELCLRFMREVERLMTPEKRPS

Compound: CS(=O)(=O)Nc1cnn(C(=O)N2CCC3(CCN(Cc4ccc(N5CCCC5)cc4C(F)(F)F)C3)CC2)c1 [Example 280, N-(1-(2-(4-(pyrrolidin-1-yl)-2-(trifluoromethyl)benzyl)-2,8-diazaspiro[4.5]decane-8-carbonyl)-1H-pyrazol-4-yl)methanesulfonamide]
- inhibition at 1 µM (MAGL; 1 μM): ≥ 75%
- inhibition at 1 µM (FAAH; 1 μM): ≥ 75%

Compound: CC(=O)N(C)c1cnn(C(=O)N2CC3CN(Cc4ccc(-c5ccncn5)cc4Cl)CC3C2)c1 (stereo not shown) [Example 272, N-(1-(5-(2-chloro-4-(pyrimidin-4-yl)benzyl)octahydropyrrolo[3,4-c]pyrrole-2-carbonyl)-1H-pyrazol-4-yl)-N-methylacetamide]
- inhibition at 1 µM (MAGL; 1 μM): ≥ 75%
- inhibition at 1 µM (FAAH; 1 μM): ≥ 75%

Compound: CS(=O)(=O)Nc1cnn(C(=O)N2CCN(Cc3ccc(-c4ccc(C(N)=O)nc4)cc3C(F)(F)F)CC2)c1 [Example 302]
- inhibition at 1 µM (MAGL; 1 μM): 25 to 50%
- inhibition at 1 µM (FAAH; 1 μM): ≥ 75%

Compound: CC(=O)N(C)c1cnn(C(=O)N2CC3CN(Cc4ccc(N5CCCC5)c(Cl)c4)CC3C2)c1 (stereo not shown) [Example 123, N-(1-(5-(3-chloro-4-(pyrrolidin-1-yl)benzyl)octahydropyrrolo[3,4-c]pyrrole-2-carbonyl)-1H-pyrazol-4-yl)-N-methylacetamide]
- IC50 (MAGL): ≤ 100 nM
- inhibition at 1 µM (MAGL; 1 μM): ≥ 75%
- IC50 (FAAH): ≤ 100 nM
- inhibition at 1 µM (FAAH; 1 μM): ≥ 75%

Compound: CC(=O)N(C)c1cnn(C(=O)N2CC3(CCN(Cc4ccc(Cl)cc4)CC3)C2)c1 [Example 84, N-(1-(7-(4-chlorobenzyl)-2,7-diazaspiro[3.5]nonane-2-carbonyl)-1H-pyrazol-4-yl)-N-methylacetamide]
- inhibition at 1 µM (MAGL; 1 μM): 50 to 75%
- inhibition at 1 µM (FAAH; 1 μM): ≥ 75%

Compound: N-(1-(5-(3-(4- methoxyphenoxy)benzyl) octahydropyrrolo[3,4-c]pyrrole-2- carbonyl)-1H-pyrazol-4-yl)-N- methylacetamide [Example 243]
- IC50 (MAGL): ≤ 100 nM
- MAGL % inh. 1 μM (mouse) (MAGL; 1 μM): A (A = % inhibition greater than or equal to 75%)
- IC50 (FAAH): ≤ 100 nM
- FAAH % inh. 1 μM (mouse) (FAAH; 1 μM): A (A = % inhibition greater than or equal to 75%)

Compound: CC(=O)N(C)c1cnn(C(=O)N2CC3CN(Cc4ccc(-c5ccccc5)cc4C)CC3C2)c1 (stereo not shown) [Example 223, N-methyl-N-(1-(5-((3-methyl-[1,1′-biphenyl]-4-yl)methyl)octahydropyrrolo[3,4-c]pyrrole-2-carbonyl)-1H-pyrazol-4-yl)acetamide]
- IC50 (MAGL): ≤ 100 nM
- inhibition at 1 µM (MAGL; 1 μM): ≥ 75%
- IC50 (FAAH): ≤ 100 nM
- inhibition at 1 µM (FAAH; 1 μM): ≥ 75%

Compound: CC(=O)N(C)c1cnn(C(=O)N2CCC3(CCN(Cc4cccc(C(F)(F)F)c4)C3)C2)c1 (single isomer, unassigned) [Example 65, N-methyl-N-(1-(7-(3-(trifluoromethyl)benzyl)-2,7-diazaspiro[4.4]nonane-2-carbonyl)-1H-pyrazol-4-yl)acetamide]
- IC50 (MAGL): 100 to 1000 nM
- inhibition at 1 µM (MAGL; 1 μM): ≥ 75%
- IC50 (FAAH): ≤ 100 nM
- inhibition at 1 µM (FAAH; 1 μM): ≥ 75%

Compound: CS(=O)(=O)Nc1cnn(C(=O)N2CCN(Cc3ccc(-c4cnccn4)cc3C(F)(F)F)CC2)c1 [Example 289, N-(1-(4-(4-(pyrazin-2-yl)-2-(trifluoromethyl)benzyl)piperazine-1-carbonyl)-1H-pyrazol-4-yl)methanesulfonamide]
- inhibition at 1 µM (MAGL; 1 μM): 25 to 50%
- inhibition at 1 µM (FAAH; 1 μM): ≥ 75%

Compound: CC(=O)N(C)c1cnn(C(=O)N2CC3(CCN(Cc4ccc(N5CCOCC5)cc4C)CC3)C2)c1 [Example 23, N-methyl-N-(1-(7-(2-methyl-4-morpholinobenzyl)-2,7-diazaspiro[3.5]nonane-2-carbonyl)-1H-pyrazol-4-yl)acetamide]
- inhibition at 1 µM (MAGL; 1 μM): 25 to 50%
- inhibition at 1 µM (FAAH; 1 μM): 25 to 50%

Compound: CC(=O)N(C)c1cnn(C(=O)N2C[C@H]3C[C@@H](N(C)Cc4cc(N5CCCC5)cc(C(F)(F)F)c4)C[C@H]3C2)c1 [Example 154, N-methyl-N-(1-(cis-5-(methyl(3-(pyrrolidin-1-yl)-5-(trifluoromethyl)benzyl)amino)octahydrocyclopenta[c]pyrrole-2-carbonyl)-1H-pyrazol-4-yl)acetamide]
- inhibition at 1 µM (MAGL; 1 μM): ≥ 75%
- inhibition at 1 µM (FAAH; 1 μM): ≥ 75%

Compound: CC(=O)N(C)c1cnn(C(=O)N2CCC3(CCN(Cc4cc(C(F)(F)F)ccc4C(F)(F)F)C3)C2)c1 (stereo not shown) [Example 72, N-(1-(7-(2,5-bis(trifluoromethyl)benzyl)-2,7-diazaspiro[4.4]nonane-2-carbonyl)-1H-pyrazol-4-yl)-N-methylacetamide]
- inhibition at 1 µM (MAGL; 1 μM): ≥ 75%
- inhibition at 1 µM (FAAH; 1 μM): ≥ 75%

Compound: CC(=O)N(C)c1cnn(C(=O)N2C[C@H]3C[C@H](N(C)Cc4cc(N5C6CCC5COC6)cc(C(F)(F)F)c4)C[C@H]3C2)c1 [Example 157, N-(1-(trans-5-((3-(3-oxa-8-azabicyclo[3.2.1]octan-8-yl)-5-(trifluoromethyl)benzyl)(methyl)amino)octahydrocyclopenta[c]pyrrole-2-carbonyl)-1H-pyrazol-4-yl)-N-methylacetamide]
- inhibition at 1 µM (MAGL; 1 μM): ≥ 75%
- inhibition at 1 µM (FAAH; 1 μM): ≥ 75%

Compound: CS(=O)(=O)Nc1cnn(C(=O)N2CCN(Cc3ccc(-c4nccs4)cc3C(F)(F)F)CC2)c1 [Example 291, N-(1-(4-(4-(thiazol-2-yl)-2-(trifluoromethyl)benzyl)piperazine-1-carbonyl)-1H-pyrazol-4-yl)methanesulfonamide]
- inhibition at 1 µM (MAGL; 1 μM): 50 to 75%
- inhibition at 1 µM (FAAH; 1 μM): ≥ 75%

Compound: CC(=O)N(C)c1cnn(C(=O)N2CC3CN(Cc4ccc(N5CCOCC5)c(C(F)(F)F)c4)CC3C2)c1 (stereo not shown) [Example 99, N-methyl-N-(1-(5-(4-morpholino-3-(trifluoromethyl)benzyl)octahydropyrrolo[3,4-c]pyrrole-2-carbonyl)-1H-pyrazol-4-yl)acetamide]
- inhibition at 1 µM (MAGL; 1 μM): ≥ 75%
- inhibition at 1 µM (FAAH; 1 μM): ≥ 75%

Compound: CS(=O)(=O)Nc1cnn(C(=O)N2CC3CN(Cc4ccc(N5CCCC5)cc4C(F)(F)F)CC3C2)c1 (stereo not shown) [Example 279, N-(1-(5-(4-(pyrrolidin-1-yl)-2-(trifluoromethyl)benzyl)octahydropyrrolo [3,4-c]pyrrole-2-carbonyl)-1H-pyrazol-4-yl)methanesulfonamide]
- IC50 (MAGL): ≤ 100 nM
- inhibition at 1 µM (MAGL; 1 μM): ≥ 75%
- IC50 (FAAH): 100 to 1000 nM
- inhibition at 1 µM (FAAH; 1 μM): ≥ 75%

Compound: COc1ccc(CN2CC3CN(C(=O)n4cc(N(C)C(C)=O)cn4)CC3C2)cc1 (stereo not shown) [Example 179, N-(1-(5-(4-methoxybenzyl)octahydropyrrolo[3,4-c]pyrrole-2-carbonyl)-1H-pyrazol-4-yl)-N-methylacetamide]
- inhibition at 1 µM (MAGL; 1 μM): 25 to 50%
- inhibition at 1 µM (FAAH; 1 μM): ≥ 75%

Compound: CC(=O)N(C)c1cnn(C(=O)N2CCN(Cc3ccc(-c4ccccc4)cc3C)CC2)c1 [Example 201, N-methyl-N-(1-(4-((3-methylbiphenyl-4 yl)methyl)piperazine-1-carbonyl)-1H-pyrazol-4-yl)acetamide]
- IC50 (MAGL): ≤ 100 nM
- inhibition at 1 µM (MAGL; 1 μM): ≥ 75%
- IC50 (FAAH): ≤ 100 nM
- inhibition at 1 µM (FAAH; 1 μM): ≥ 75%

Compound: CC(=O)N(C)c1cnn(C(=O)N2CC3CN(Cc4cc(N5CCOCC5)cc(C(F)(F)F)c4)CC3C2)c1 (stereo not shown) [Example 114, N-methyl-N-(1-(5-(3-morpholino-5-(trifluoromethyl)benzyl)octahydropyrrolo[3,4-c]pyrrole-2-carbonyl)-1H-pyrazol-4-yl)acetamide]
- IC50 (MAGL): ≤ 100 nM
- inhibition at 1 µM (MAGL; 1 μM): ≥ 75%
- IC50 (FAAH): ≤ 100 nM
- inhibition at 1 µM (FAAH; 1 μM): ≥ 75%

Source: US10323038B2, “Pyrazole compounds and methods of making and using same” (ABIDE THERAPEUTICS, INC., priority 2015, dated 2019)
